According to patent publication US20070016970A1, “Guinea pig-chymase” (priority 2005, published 2007):
pIC50: −log10 of the molar value. Where two headings read alike, the source gives them in different places.

Experiments:
[1] = target: T1, guinea pig chymase (Cavia porcellus, UniProt A7WPL7, G52S); assay: Assay for chymase inhibition (fluorogenic AAPF-AMC substrate), guinea pig chymase; assay type: biochemical; settings: recombinant guinea pig chymase; 0.02 mM AAPF-substrate, 1 nM chymase, pH 7.4, 30 min pre-incubation, room temperature; read-out: Inhibition of guinea pig chymase activity, IC50, GP chymase
T1 construct: Thereby the mature guinea pig chymase with the correct N-terminus was formed; 26-amino acid N-terminal polypeptide with 6xHis tag and enterokinase cleavage site (N, cleaved yes); made in house
T1 sequence (A7WPL7 22-247 G52S): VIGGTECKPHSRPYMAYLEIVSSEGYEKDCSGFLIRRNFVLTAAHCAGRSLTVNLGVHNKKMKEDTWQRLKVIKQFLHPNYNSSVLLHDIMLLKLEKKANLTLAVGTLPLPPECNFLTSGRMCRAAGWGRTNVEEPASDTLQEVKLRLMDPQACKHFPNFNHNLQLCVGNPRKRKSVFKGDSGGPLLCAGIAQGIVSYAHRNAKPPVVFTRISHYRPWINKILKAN

[2] = target: T2, Human Chymase coli (Homo sapiens, UniProt P23946); assay: Assay for chymase inhibition (fluorogenic AAPF-AMC substrate), human chymase; assay type: biochemical
T2 construct: Chymase purified from human skin mast cells was obtained from Calbiochem; purchased Calbiochem (Merck Biosciences, San Diego, Calif., USA); host or cells: human skin mast cells
T2 sequence (P23946 22-247): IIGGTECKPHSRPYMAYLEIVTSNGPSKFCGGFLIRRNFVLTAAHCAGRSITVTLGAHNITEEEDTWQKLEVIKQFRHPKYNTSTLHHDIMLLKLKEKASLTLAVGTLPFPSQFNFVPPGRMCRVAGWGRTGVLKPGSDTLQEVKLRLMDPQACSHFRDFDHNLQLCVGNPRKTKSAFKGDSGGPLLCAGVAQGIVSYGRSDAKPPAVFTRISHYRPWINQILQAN
Protocol: The peptide was synthesized with a purity of 95% from Bachem, Bubendorf, Switzerland). Chymase purified from human skin mast cells was obtained from Calbiochem (Merck Biosciences, San Diego, Calif., USA). The assay buffer was 0.15 M NaCl, 0.05M, Tris HCl, 0.05% CHAPS, 0.1 mg/ml Heparin (Heparin sodium, Sigma, porcine intestinal mucosa), 0.02mM AAPF-substrate, 1 nM Chymase at pH 7.4. The assay was performed in 96-well plates (Packard Optiplate), with a 0.05 ml volume at room temperature. Chymase activity was indicated by the initial rate of increase in fluorescence at 340/440 nm (excitation/emission) from free 7-amino-4-methylcoumarin released from the substrate. Inhibition of the activity by inhibitory compounds was read after 30 min pre-incubation with the chymase at room temperature in assay buffer without AAPF-substrate. The assay was then started by addition of the indicated concentration of AAPF-substrate.

Row | pIC50 [1] | pIC50 ([2]; human chymase, 0.02 mM AAPF-substrate, 1 nM chymase, pH 7.4, 30 min pre-incubation, room temperature, read-out: Inhibition of chymase activity, IC50, Human Chymase coli) | pIC50 [2] | Structure (SMILES)
1 | 6.03 | 6.24 | – | CC(=O)NCCc1c(C(c2ccccc2)c2c(O)c3ccccc3n(C)c2=O)[nH]c2ccccc12 (stereo not shown) [SF2809-V, N-(2-{2-[(4-Hydroxy-1-methyl-2-oxo-1,2-dihydro-quinolin-3-yl)-phenyl-methyl]-1H-indol-3-yl}-ethyl)-acetamide]
2 | 6.46 | – | 6.23 | COC(=O)c1ccc(NS(=O)(=O)c2sc3ccc(F)cc3c2C)c(S(C)(=O)=O)c1 [TY-51076, 4-(5-Fluoro-3-methyl-benzothiophene-2-sulfonylamino)-3-methanesulfonyl-benzoic acid methyl ester]
